The record followed here is US4461891A, “2-β-D-Ribofuranosylthiazole-4-carboxamidine compounds” (Brigham Young University, priority 1983, dated 1984).

The structures appear in SMILES notation.

The subject of data set [1] is purine nucleoside phosphorylase. Briefly: purine nucleoside phosphorylase (PNP-4) test: formation of [14C]-hypoxanthine from [14C]-inosine. The settings on record: human erythrocytes as the source of enzyme; [14C]-inosine substrate. In kind it is biochemical. The source says: In particular, the compound, in a standard protocol, patterned after that reported in Biomedicine, 33, 39-41(1980), has been shown typically to inhibit the formation of [^14 C]-hypoxanthine from [^14 C]-inosine using human erythrocytes as the source of enzyme. […] Since T-cells play a central role in immune response, use of the compounds of the invention is contemplated for the immunoregulation of autoimmune disease Such as rheumatoid arthritis, systemic lupus erythematosus, and inflammatory bowel disease. The present invention in another preferred aspect therefore relates to compositions containing at least one compound of the invention in treating disease such as autoimmune disease characterized by abnormal immune response in warm blooded animals. According to this aspect of the invention, the properties of 2-β-D-ribofuranosylthiazole-4-carboxamidines are utilized by administering to a warm blooded animal an effective amount of a pharmaceutical composition containing as the active ingredient at least about 0.1 percent by weight, based on the total weight of the composition of at least one such compound of the invention.

Data set [2] relates to T-cells. Briefly: T-cell test: selective cytotoxicity in the presence of 2'-deoxyguanosine. In kind it is cell-based.
Data set [3] has as its system CEM T-lymphoblasts. Put plainly: T-cell test with 2'-deoxyguanosine, CEM. The data set is classed as cell-based. The settings on record: with 2'-deoxyguanosine (10 micromoles), read-out: ED50 (toxic for T-lymphoblasts).
The subject of data set [4] is MOLT-4. Put plainly: T-cell test with 2'-deoxyguanosine, MOLT-4. In kind it is cell-based. The settings on record: with 2'-deoxyguanosine (10 micromoles), read-out: ED50 (toxic for T-lymphoblasts).
The subject of data set [5] is HSB. Put plainly: T-cell test with 2'-deoxyguanosine, HSB. The data set is classed as cell-based. The settings on record: with 2'-deoxyguanosine (10 micromoles), read-out: ED50 (toxic for T-lymphoblasts).

For `Cl.N=C(N)c1csc([C@@H]2O[C@H](CO)[C@@H](O)[C@H]2O)n1` [Example 1, 2-β-D-Ribofuranosylthiazole-4-Carboxamidine, hydrochloride], in data set [1], the “concentration at which total inhibition was achieved” value is recorded as “less than 300 micromoles”. The “selective cytotoxicity for T-cells” value in data set [2] is “selectively cytotoxic for T-cells”. Besides, the IC50 in data set [3] was ~77 µM; in data set [4], ~27 µM; in data set [5], ~7 µM.
